Source: patent US20240009172A1, “COMPOSTIONS AND METHODS FOR TREATING PROSTATE CANCER” (The Regents of the University of Michigan, priority 2022, published 2024)

Columns and labels:
[1] = tested on: CRPC tumor biopsy transcriptome; assay: RNA-sequencing differential gene expression (DESeq2), progression versus baseline in converters; parameters: species or system human; conditions: progression vs baseline samples from the three converters
Description: (§1) Methods for tissue collection have been described previously 48.
Core biopsy samples were flash frozen in Optical Cutting Temperature (OCT) for gene expression analysis. Laser capture microdissection was performed on frozen sections to enrich for tumor content 49. Total RNA was isolated (Stratagene Absolutely RNA Nano Prep) (RIN>8) and amplified using NuGEN Ovation RNA seq System V2. Libraries were generated using NuGEN Ovation Ultralow System V2 for Illumina sequencing. RNA seq was performed on the Illumina NextSeq 500, PE75 with at least 100M read pairs. The raw fastq files were first quality checked using FastQC (version 0.11.8) software (http://www.bioinformatics.bbsrc.ac.uk/projects/fastqc/). Fastq files were aligned to hg38 human reference genome and per-gene counts and transcripts per million (TPM) quantified by RSEM 50 (version 1.3.1) based on the gene annotation gencode.v28.annotation.gtf.
Differential expression gene, pathway, and master regulator analysis Differential gene expression analysis was performed using DESeq2 (version 1.22.2). Gene expression differences were considered significant if passing the following criteria: adjusted P-value <0.05, absolute fold change >1.5. For the converter vs non-converter baseline sample comparison, we used the adjusted P-value <0.1. […]

CRPC tumors = assay: Aggarwal cluster designation and Labrecque classification of progression tumors (lineage plasticity); parameters: species or system human; conditions: 3/21 progression tumors (Aggarwal cluster 2, DNPC by Labrecque)
Description: The unsupervised analysis from Aggarwal, et al. 25 identified five clusters using 119 samples. That study identified 528 genes that were the most differentially expressed between the clusters. Using that gene list, cluster assignments for new samples included in this matched biopsy cohort were determined without replicating the unsupervised analysis. First, the sample batch effect between the samples from the previous study and those from the current study was addressed with exponential normalization on the expression data of all samples—old and new. Exponential normalization is a per-sample operation that fits the expression of all genes to a unit exponential distribution. […]
To determine the Labrecque classification, a 26 gene signature used previously to define five phenotypic categories of CRPC 24 was applied: AR-high prostate cancer (ARPC), amphicrine prostate cancer, AR-low prostate cancer (ARLPC), double-negative prostate cancer (DNPC), and neuroendocrine prostate cancer (NEPC) 24. […] Samples were assigned to the phenotype groups by clustering using Euclidean distance calculated by the dist function and visualization using classical multidimensional scaling (MDS) calculated with the cmdscale function in R using the log2(TPM+1) transformed expression profiles of the remaining 25 genes.

[2] = tested on: metastatic, castration-resistant prostate cancer; assay: Enzalutamide treatment of WCDT patients with matched biopsies: PSA response and time on treatment; assay type: in vivo, human; parameters: PSA Change at 12 weeks: unit not given here
Description: as §1
By examining the Stand Up to Cancer Foundation/Prostate Cancer Foundation West Coast Dream Team (WCDT) prospective cohort, 21 patients with CRPC who underwent a metastatic tumor biopsy prior to enza and a repeat biopsy at the time of progression and whose tumor cells underwent RNA-sequencing after laser capture microdissection were identified. All progression biopsies were performed prior to discontinuing enza, enabling one to identify resistance mechanisms induced by continued enza treatment.
Bone was the most common site for both pre-treatment and progression biopsies. Eighteen of 21 patients had the same tissue type biopsied at progression. In eight patients, the exact same lesion was biopsied at baseline and progression (FIG. 1B, Table 3). The median time on enza treatment was 226 days.

Structure (SMILES): CNC(=O)c1ccc(N2C(=S)N(c3ccc(C#N)c(C(F)(F)F)c3)C(=O)C2(C)C)cc1F [enzalutamide]
- expression of AR, AR target genes (KLK2, KLK3, TMPRSS2) and HOXB13 [1]: markedly decreased expression
- enza-induced lineage plasticity and conversion to an AR-independent program, frequency of tumors (CRPC tumors): 14%
- median time on enza treatment ([2]; 21 patients): 226 days
- Median time on enzalutamide, days (SD) ([2]; Table 2, n = 21 patients): 261 days
- 50% PSA response to enzalutamide ([2]; number of patients, n = 21): 7
- PSA Change at 12 weeks ([2]; patient DTB_024): 75.05
- PSA Change at 12 weeks ([2]; patient DTB_060): −20.41
- PSA Change at 12 weeks ([2]; patient DTB_063): −74.64
- PSA Change at 12 weeks ([2]; patient DTB_073): 156.81
- PSA Change at 12 weeks ([2]; patient DTB_080): −28.48
- PSA Change at 12 weeks ([2]; patient DTB_089): 181.18
- PSA Change at 12 weeks ([2]; patient DTB_098): −83.74
- PSA Change at 12 weeks ([2]; patient DTB_102): −93.02
- PSA Change at 12 weeks ([2]; patient DTB_111): 113.99
- PSA Change at 12 weeks ([2]; patient DTB_127): 169.29
- PSA Change at 12 weeks ([2]; patient DTB_135): 164.26
- PSA Change at 12 weeks ([2]; patient DTB_137): −10.85
- PSA Change at 12 weeks ([2]; patient DTB_141): −81.04
- PSA Change at 12 weeks ([2]; patient DTB_149): −80.29
- PSA Change at 12 weeks ([2]; patient DTB_167): −88.38
- PSA Change at 12 weeks ([2]; patient DTB_176): −64.76
- PSA Change at 12 weeks ([2]; patient DTB_194): 100.36
- PSA Change at 12 weeks ([2]; patient DTB_210): −83.36
- PSA Change at 12 weeks ([2]; patient DTB_232): −0.55
- PSA Change at 12 weeks ([2]; patient DTB_265): 5.84
